From US20240368139A1, “NOVEL MODULATORS OF EHMT1 AND EHMT2 AND THERAPEUTIC USE THEREOF” (Tango Therapeutics, Inc., priority 2021, published 2024)

Experiments:
[1] = target: T1, human EHMT1 982-1266 (Homo sapiens, UniProt Q9H9B1); assay: EHMT1 enzyme assay on histone peptide substrate (3H-SAM SPA); details: EHMT1 IC50, recombinant human EHMT1 982-1266, histone peptide substrate
T1 sequence (Q9H9B1 982-1266): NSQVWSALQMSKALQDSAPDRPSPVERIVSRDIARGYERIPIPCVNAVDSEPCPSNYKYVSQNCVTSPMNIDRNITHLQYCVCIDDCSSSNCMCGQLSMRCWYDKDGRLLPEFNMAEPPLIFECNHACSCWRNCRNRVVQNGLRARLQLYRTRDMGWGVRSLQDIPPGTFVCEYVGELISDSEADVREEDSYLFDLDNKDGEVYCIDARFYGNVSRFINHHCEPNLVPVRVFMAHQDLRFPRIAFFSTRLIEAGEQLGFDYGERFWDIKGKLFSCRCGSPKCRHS

[2] = target: T2, human EHMT2 913-1193 (Homo sapiens, UniProt Q96KQ7); assay: EHMT2 enzyme assay on histone peptide substrate (3H-SAM SPA); details: EHMT2 IC50, recombinant human EHMT2 913-1193, histone peptide substrate
T2 sequence (Q96KQ7 913-1193): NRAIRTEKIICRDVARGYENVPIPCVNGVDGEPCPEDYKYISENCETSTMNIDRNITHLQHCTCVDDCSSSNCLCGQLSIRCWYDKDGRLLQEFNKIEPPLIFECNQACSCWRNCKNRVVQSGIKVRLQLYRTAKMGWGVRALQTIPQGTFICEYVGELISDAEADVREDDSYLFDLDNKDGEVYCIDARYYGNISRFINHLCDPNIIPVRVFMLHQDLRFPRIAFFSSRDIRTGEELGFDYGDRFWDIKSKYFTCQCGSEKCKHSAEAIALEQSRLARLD

[3] = system: H3K9me2 in HCT116 cells; assay: HCT116 H3K9me2 in-cell western assay; type: cell-based; details: Homo sapiens, HCT-116, 72 h, HCT116 cells, 72 hours incubation; read-out: H3K9me2 ICW IC50
Description: HCT116 cell line was purchased from ATCC (Manassas, VA, USA). […] Penicillin-Streptomycin and heat inactivated fetal bovine serum were purchased from Hyclone (Logan, UT, USA). DPBS, Corning^R were purchased from VWR (Radnor, PA, USA). Triton′ X-100 was purchased from Sigma (St. Louis, MO, USA). Intercept blocking buffer, DRAQ5, Licor Odyssey Infrared Scanner were purchased from Licor Biosciences (Lincoln, NB, USA). Plate washer was purchased from BioTek (Winooski, VT, USA). […] 16% Paraformaldehyde was purchased from Electron Microscopy Sciences (Hatfield, PA, USA). HCT116 cells were maintained in complete growth medium (RPMI supplemented with 10% heat inactivated fetal bovine serum, 1% Penicillin-Streptomycin) and cultured at 37° C. under 5% CO2. N^2-(4-methoxy-3-(3-(pyrrolidin-1-yl)propoxy)phenyl)-N^4,6-dimethyl]pyrimidine-2,4-diamine (synthesis disclosed in International Application WO2017181177A1) was used as a control compound.
HCT116 cells (ATCC) were trypsinized, counted and seeded in assay medium (RPMI supplemented with 10% heat inactivated fetal bovine serum, 1% Penicillin-Streptomycin) at a concentration of 2,000 cells per well to a 384-well cell culture plate with compounds in 50 μl per well. Plates were incubated with at 37° C. under 5% CO2 for 72 hours. After the incubation, 50 μl per well of 8% paraformaldehyde in PBS was added to the plates and incubated at room temperature for 20 minutes. Plates were transferred to a BioTek (EL406) plate washer and washed 5 times with 110 μl per well of wash buffer (1×PBS containing 0.1% Triton X-100). The plates were next blocked with 50 μl of Intercept blocking buffer for 1 hour at room temperature. Blocking buffer was removed and 30 μl per well of monoclonal primary antibody of H3K9me2 (CST) diluted 1:200 in Intercept blocking buffer were added and plates were incubated overnight at 4° C. The plates were then washed 5 times with 110 μl per well of wash buffer (1×PBS containing 0.1% Triton X-100). Next 30 μl per well of secondary was added (1:400 800 CW goat anti-rabbit IgG in blocking buffer) with 1:1000 DRAQ5 in blocking buffer and incubated for 2 hours at room temperature. The plates were washed 5 times with 110 μl per well of wash buffer (1×PBS containing 0.1% Triton X-100) then with 100 μl per well of water once. Plates were allowed to dry at room temperature then imaged on a Licor Odyssey Infrared Scanner which measured integrated intensity at 700 nm and 800 nm wavelength. Both 700 and 800 channels were scanned.
The average of the ratio values (800 nm/700 nm) for each well was calculated and used to determine the percentage for each test well in the plate. Compounds were serially diluted two-fold in 0.1% DMSO for a total of 10 test concentrations beginning at 10 μM. IC50 curves were generated using duplicate wells per concentration of compound. […] IC50 values were calculated using a non-linear regression of Prism.

IC50 [1] [nM] | IC50 [2] [nM] | IC50 [3] [nM] | Compound
500 to 2000 | > 2000 |  | CNc1cc(C)nc(Nc2cc3c(c(C4=CCNC(CO)CC4)c2F)OCC3)n1 (single isomer, unassigned) [Compound 159-a]
< 100 | 100 to 500 |  | CNc1cc(C)nc(Nc2cc3c(c(C4=CCNC(CO)CC4)c2F)OCC3)n1 (single isomer, unassigned) [Compound 159]
500 to 2000 | > 2000 |  | CNc1cc(C)nc(Nc2cc3c(c(C4=CCNC(C)CC4)c2Cl)OCCO3)n1 (single isomer, unassigned) [Compound 161-a]
< 100 | < 100 |  | CNc1cc(C)nc(Nc2cc3c(c(C4=CCNC(C)CC4)c2Cl)OCCO3)n1 (single isomer, unassigned) [Compound 161]
500 to 2000 | 500 to 2000 |  | CNc1cc(C)nc(Nc2cc3c(c(C4=CCNC(C)CC4)c2F)OCCC3)n1 (single isomer, unassigned) [Compound 162]
500 to 2000 | > 2000 |  | CNc1cc(C)nc(Nc2cc3c(c(C4=CCNC(C)CC4)c2F)OCCO3)n1 (single isomer, unassigned) [Compound 163-a]
< 100 | < 100 |  | CNc1cc(C)nc(Nc2cc3c(c(C4=CCNC(C)CC4)c2F)OCCO3)n1 (single isomer, unassigned) [Compound 163]
< 100 | < 100 |  | CNc1cc(C)nc(Nc2cc3c(c(C4=CCNC(C)CC4)c2F)OCCC3)n1 (single isomer, unassigned) [Compound 164]
100 to 500 | 100 to 500 |  | CNc1cc(C)nc(Nc2cc3c(c(C4=CCNCC(F)C4)c2F)OCC3)n1 (single isomer, unassigned) [Compound 168]
100 to 500 | 500 to 2000 |  | CNc1cc(C)nc(Nc2cc3c(c(C4=CCNC(C)CC4)c2F)OCC3)n1 (single isomer, unassigned) [Compound 184]
> 2000 | > 2000 |  | CNc1cc(C)nc(Nc2cc3c(c(C4=CCNC(C(F)F)CC4)c2F)OCC3)n1 (single isomer, unassigned) [Compound 354-a]
< 100 | 100 to 500 |  | CNc1cc(C)nc(Nc2cc3c(c(C4=CCNC(C(F)F)CC4)c2F)OCC3)n1 (single isomer, unassigned) [Compound 354]
500 to 2000 | > 2000 |  | CNc1cc(C)nc(Nc2cc3c(c(C4=CCNC(C)CC4)c2Cl)OCO3)n1 (single isomer, unassigned) [Compound 356-a]
< 100 | < 100 |  | CNc1cc(C)nc(Nc2cc3c(c(C4=CCNC(C)CC4)c2Cl)OCO3)n1 (single isomer, unassigned) [Compound 356]
100 to 500 | 500 to 2000 |  | CNc1cc(C)nc(Nc2cc3c(c(C4=CCNCC(O)C4)c2C)OCCC3)n1 (single isomer, unassigned) [Compound 360]
100 to 500 | 500 to 2000 |  | CNc1cc(C)nc(Nc2cc3c(c(C4=CCNC(C)CC4)c2Cl)OCCC3)n1 (single isomer, unassigned) [Compound 365]
500 to 2000 | > 2000 |  | CNc1cc(C)nc(Nc2cc3c(c(C4=CCNCC(OC)C4)c2F)OCC3)n1 (single isomer, unassigned) [Compound 366-a]
100 to 500 | 500 to 2000 |  | CNc1cc(C)nc(Nc2cc3c(c(C4=CCNCC(OC)C4)c2F)OCC3)n1 (single isomer, unassigned) [Compound 366]
100 to 500 | 100 to 500 |  | CNc1cc(C)nc(Nc2cc3c(c(C4=CCNC(C)CC4)c2C)OCCO3)n1 (single isomer, unassigned) [Compound 368]

IC50 [1] [nM] | IC50 [2] [nM] | IC50 [3] [nM] | Compound
> 2000 | > 2000 |  | CNc1cc(C)nc(Nc2cc3c(c(C4=CCNC(CF)CC4)c2F)OCC3)n1 (single isomer, unassigned) [Compound 371-a]
< 100 | < 100 |  | CNc1cc(C)nc(Nc2cc3c(c(C4=CCNC(CF)CC4)c2F)OCC3)n1 (single isomer, unassigned) [Compound 371]
500 to 2000 | 500 to 2000 |  | CNc1cc(C)nc(Nc2cc3c(c(C4=CCNC(C)CC4)c2Cl)OCC3)n1 (single isomer, unassigned) [Compound 374-a]
< 100 | < 100 |  | CNc1cc(C)nc(Nc2cc3c(c(C4=CCN(C)CC(O)C4)c2C)OCC3)n1 (single isomer, unassigned) [Compound 379]
100 to 500 | 500 to 2000 |  | CNc1cc(C)nc(Nc2cc3c(c(C4=CCNC(C)CC4)c2F)OCO3)n1 (single isomer, unassigned) [Compound 380]
500 to 2000 | 500 to 2000 |  | CNc1cc(C)nc(Nc2cc3c(c(C4=CCNC(C)CC4)c2C)OCC3)n1 (single isomer, unassigned) [Compound 383-a]
> 2000 | > 2000 |  | CNc1cc(C)nc(Nc2cc3c(c(C4=CCNC(C)CC4)c2C)OCCC3)n1 (single isomer, unassigned) [Compound 385-a]
< 100 | 100 to 500 |  | CNc1cc(C)nc(Nc2cc3c(c(C4=CCNC(C)CC4)c2C)OCCC3)n1 (single isomer, unassigned) [Compound 385]
 |  | < 100 | CNc1cc(C)nc(Nc2cc3c(c(C4=CCN(C)CC(O)C4)c2Cl)OCCC3)n1 (single isomer, unassigned) [Compound 402]
 |  | 100 to 500 | CNc1cc(C)nc(Nc2cc3c(c(C4=CCN(C)CCC4)c2F)OCCC3C)n1 (single isomer, unassigned) [Compound 406]
 |  | < 100 | CNc1cc(C)nc(Nc2cc3c(c(C4=CCNCC(O)C4)c2Cl)OCCC3)n1 (single isomer, unassigned) [Compound 407]
 |  | < 100 | CNc1cc(C)nc(Nc2cc3c(c(C4=CCNCCC4)c2F)OCCC3C)n1 (single isomer, unassigned) [Compound 414]
 |  | < 100 | CNc1cc(C)nc(Nc2cc3c(c(C4=CCNCCC4)c2F)OCC[C@@H]3C)n1 (single isomer, unassigned) [Compound 415]
< 100 | 100 to 500 |  | CNc1cc(C)nc(Nc2cc3c(c(C4=CCN(C)CC(O)C4)c2C)OCCC3)n1 (single isomer, unassigned) [Compound 418]
500 to 2000 | > 2000 |  | CNc1cc(C)nc(Nc2cc3c(c(C4=CCN(C)CC(O)C4)c2C)OCCC3)n1 (single isomer, unassigned) [Compound 419]
500 to 2000 | > 2000 |  | CNc1cc(C)nc(Nc2cc3c(c(C4=CCC(N)CC4)c2F)OCC3)n1 (single isomer, unassigned) [Compound 436]
 |  | 100 to 500 | Cc1cc(N(C)C)nc(Nc2cc3c(c(C4=CCNCCC4)c2)OCC3)n1 [Compound 138]
< 100 | < 100 |  | [2H]Cc1cc(NC([2H])([2H])[2H])nc(Nc2cc3c(c(C4=CCNCCC4)c2)OCCO3)n1 [Compound 216]
100 to 500 | > 2000 |  | CNc1cc(C)nc(Nc2cc3c(c([C@H]4CC[C@H](N)CC4)c2)OCCO3)n1 [Compound 337]
